In US9364480B2, “Pharmaceutical composition for preventing or treating cancer, containing enoblock as active ingredient” (GWANGJU INSTITUTE OF SCIENCE AND TECHNOLOGY, priority 2012, dated 2016):
Entries after “also recorded” stand apart in the source; their conditions may differ.

Columns and labels:
[1] = system: HCT116 cancer cells; assay: Sensitivity to antitubulin chemotherapeutics taxol and vincristine; type: cell-based; settings: 10 nM taxol or 10 nM vincristine with or without 10 μM ENOblock
Experimental: FIG. 7. […] (b) Microscopic images of crystal violet stained HCT116 cells invaded onto the transwell inserts (scale bar=100 μm). […] (d) Microscopic images of crystal violet stained HCT116 cells migrated onto the transwell inserts (scale bar=100 μm). […] Cells were treated with 10 nM taxol and 10 nM vincristine, with or without 10 μM ENOblock. Error=SD; *=P<0.05 between the groups indicated on the graph. […] For the AKT Western blot, cells were treated with ENOblock for 24 h; for the Bcl-Xl Western blot, cells were treated with ENOblock for 48 h.

[2] = system: zebrafish larvae; assay: Toxicological analysis using the zebrafish larvae system; type: in vivo, zebrafish (Danio rerio); settings: for microscopic assessment of larvae morphology: 72 days post fertilization (dfp) zebrafish larvae
Experimental: (§1) FIG. 9. Toxicological study of ENOblock and in vivo analysis of anticancer activity. (A) Toxicological analysis of ENOblock treatment using the zebrafish larvae system. […] (B) Microscopic assessment of […] post fertilization (dfp) zebrafish larvae exposed to increasing doses of ENOblock. […] Error=SD; *=P<0.05 compared to the DMSO treated group. P value: 20 μM ENOblock=0.0121; 40 μM ENOblock=0.0019. […] DMSO treatment served as a control. Three representative embryos are shown from each experimental group, and distributed cancer cell foci are designated with blue arrows. […] Error=SD; *=P<0.05 compared to the DMSO-treated group.
The zebrafish (Danio rerio) cancer cell xenograft model is gaining increasing research prominence as a validated, convenient tool for testing candidate cancer drugs in vivo.^10,11 In addition, zebrafish is a relevant vertebrate platform for predicting toxicological effects in mammals.^12 We observed that 10 μM ENOblock treatment of developing zebrafish larvae was nontoxic (FIG. 9a-9c).

[3] = system: glucose 6-phosphatase (G6 Pase) expression in hepatocytes; assay: G6 Pase expression in hepatocytes; type: cell-based; settings: 10 μM, 24 h
From the text: (§2) FIG. 10. […] Error=SD; *=P<0.05 compared to the no drug (DMSO-treated) group. […] Error=SD; *=P<0.05 for reduced PEPCK expression compared to the no drug (DMSO-treated) group.

[4] = system: HCT116-xenotransplanted zebrafish; assay: Zebrafish tumor cell xenograft model; type: in vivo, zebrafish (Danio rerio)
From the text: as §1, with “group.” for “group. P value: 20 μM ENOblock=0.0121; 40 μM ENOblock=0.0019.”
Zebrafish embryos were obtained using standard mating conditions^53 and staged for cell xenoplantation at 48 h post fertilization. After staining of cancer cells (described below), embryos were de-chorionized using micro-forceps and anesthetized with 0.0016% tricaine and positioned on their right side on a wet 1.0% agarose pad. Tumor cells were detached from culture dishes using 0.05% trypsin-EDTA and washed twice with PBS at room temperature. Cells were stained with 2 μg/ml DiI diluted in PBS and washed four times: once with FBS, twice with PBS and then once with 10% FBS diluted in PBS. Cells were kept on ice before injection. Cancer cells were counted by microscopy, suspended in 10% FBS and 100 cells were injected into the center of the yolk sac using an injector equipped with borosilicate glass capillaries (PV820 pneumatic picopump, World Precision Instruments). Injected embryos were transferred to a 96-well plate (one embryo/well) containing drug of interest diluted in […] E3 media (without methylene blue) and maintained at the pre-selected incubation temperature.

[5] = system: pre-adipocytes undergoing adipogenesis; assay: Adipogenesis lipid accumulation (Oil Red O staining); type: cell-based
[6] = system: phosphoenolpyruvate carboxykinase (PEPCK) expression in Huh7 hepatocytes; assay: PEPCK expression in hepatocytes; type: cell-based; settings: 10 μM, 24 h
From the text: as §2

[7] = target: T1, Enolase purified from rabbit muscle (Oryctolagus cuniculus, UniProt P25704); assay: Enolase activity assay; type: biochemical
T1 construct: Enolase purified from rabbit muscle was purchased from Sigma-Aldrich; purchased Sigma-Aldrich; host or cells: rabbit muscle
T1 sequence (P25704 whole entry): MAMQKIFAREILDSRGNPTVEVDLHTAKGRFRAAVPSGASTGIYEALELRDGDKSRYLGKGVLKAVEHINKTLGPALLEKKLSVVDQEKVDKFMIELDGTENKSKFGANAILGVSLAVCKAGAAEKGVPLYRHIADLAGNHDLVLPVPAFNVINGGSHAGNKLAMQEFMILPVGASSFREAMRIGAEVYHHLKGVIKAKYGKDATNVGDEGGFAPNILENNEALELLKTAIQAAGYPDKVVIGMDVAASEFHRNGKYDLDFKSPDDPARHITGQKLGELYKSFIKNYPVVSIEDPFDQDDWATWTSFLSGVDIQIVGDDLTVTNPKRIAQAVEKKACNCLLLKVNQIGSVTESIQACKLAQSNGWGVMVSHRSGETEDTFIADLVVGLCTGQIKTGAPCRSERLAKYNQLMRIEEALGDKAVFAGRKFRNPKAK
Experimental: FIG. 4. […] (a) Affinity chromatography study for ENOblock in HCT116 cancer cells. […] (b) Sequence identification for the enolase monomer subunit. […] Mascot scores above 100 were deemed to be significant. […] Twenty micrograms of cell lysate from YD-10B oral cancer cells or Huh7 hepatocytes were used as positive controls. […] As a positive control, ENOblock affinity matrix was incubated with 200 μg of HCT 116 cell lysate; 50 μg cell lysate from HCT116 cancer cells was used as a positive control for the enolase antibody.
Enolase purified from rabbit muscle was purchased from Sigma-Aldrich. A single unit of enolase is defined as the amount of enzyme that produces 1 μmol of phosphoenol pyruvate from phospho-D-glycerate/min in standard assay.^52 Enolase activity assay was measured at 37° C. by incubating pure enolase (3-9 U) in a buffer containing 50 mM imidazole-HCl (pH 6.8)(JUNSEI), 2.0 mM MgSO4 (JUNSEI) and 400 mM KCl (JUNSEI) in the absence or presence of ENOblock or NaF (Sigma). The reaction was initiated by adding 1 μmol of 2-phospho-D-glycerate, and the OD was measured after 10 min of reaction time with a spectrophometer at 240 nm.

NCCOCCOCCNC(=O)Cc1ccc(Nc2nc(NCc3ccc(F)cc3)nc(NCC3CCCCC3)n2)cc1 [ENOblock]
sensitivity to taxol and vincristine (cytotoxicity) [1]: increased sensitivity to the antitubulin chemotherapeutics taxol and vincristine
overall zebrafish larvae viability ([2]; 10 μM): did not affect viability
overall zebrafish larvae viability ([2]; 20 μM): reduced overall zebrafish larvae viability
overall zebrafish larvae viability ([2]; 40 μM): reduced overall zebrafish larvae viability
microscopic assessment of larvae morphology ([2]; 20 μM): produced an abnormally large swim bladder
microscopic assessment of larvae morphology ([2]; 40 μM): produced multiple abnormalities in the larvae
toxicity / tolerability (developmental parameters) ([2]; zebrafish larvae, 10 μM): could be tolerated by the larvae; also recorded: nontoxic
ability to swim ([2]; zebrafish larvae, 20 μM): inhibited the ability to swim
glucose 6-phosphatase (G6 Pase) expression [3]: did not affect expression of the enzymes
number of embryos showing cancer cell migration and metastasis (dissemination) from the yolk sac injection site ([4]; 10 μM for 96 h, DMSO control): reduced the number of embryos showing migration and metastasis; also recorded: reduced cancer cell dissemination
quantification of xenotransplanted cancer cell microfoci ([4]; 10 μM for 96 h, vs DMSO-treated group): significantly reduced cancer cell migration and metastasis
viability of xenotransplanted cancer cells ([4]; normoxia): without noticeably affecting cancer cell viability
lipid accumulation during adipogenesis (Oil Red O, microscopy) ([5]; 10 μM): inhibited lipid accumulation
quantification of lipid accumulation during adipogenesis ([5]; ENOblock treatment with adipogenic cocktail): blocked lipid accumulation during adipogenesis
PEPCK expression [6]: inhibited expression of PEPCK
inhibition of purified enolase activity ([7]; OD 240 nm, 37° C., 10 min): dose-dependently inhibited the activity of purified enolase; also recorded: enolase activity can be inhibited by ENOblock dose-dependently
enolase inhibitory concentration compared with sodium fluoride (NaF) ([7]; purified enolase): markedly lower concentration than the wellknown enolase inhibitor
treatment concentration reducing enolase activity to the level approximated with 1 mM NaF ([7]; purified enolase): 2.5 µM
